Test in all cases: ≥ marks a high value that may be exact or a test limit, other limits are often not marked, values filed in µg/mL are converted to µM
For test [1], the system named is Bacillus subtilis KCTC 3038.
Test [2] concerns Enterococcus casseliflavus.
The test system of test [3] is Enterococcus faecalis ATCC 29212.
For test [4], the system named is Enterococcus faecium.
In test [5] the test system is Enterococcus gallinarum.
Test [6] relates to Saccharomyces cerevisiae ATCC 44774.
Test [7] has as its system Salmonella typhimurium KCTC 2370.
Test [8] deals with Staphylococcus aureus.
Test [9] relates to Acinetobacter baumannii ATCC 17987.
For test [10], the system named is Acinetobacter baumannii.
Test [11] has as its system Burkholderia cenocepacia 4813.
The test system of test [12] is Cutibacterium acnes C2.
The subject of test [13] is Cutibacterium acnes PJI2.
Test [14] deals with Enterobacter cloacae 218R.
Test [15] has as its system Enterococcus faecalis ATCC 19433.
The test system of test [16] is Escherichia coli HB101.
Test [17] deals with Escherichia coli O157.
For test [18], the system named is Klebsiella pneumoniae 1549216.
For test [19], the system named is Klebsiella pneumoniae ATCC 13883.
Test [20] relates to Klebsiella pneumoniae KPLN649.
In test [21] the test system is Mycobacterium tuberculosis H37Rv.
The subject of test [22] is Pseudomonas aeruginosa PA14.
Test [23] deals with Pseudomonas aeruginosa PAO1.
For test [24], the system named is Pseudomonas aeruginosa.
The subject of test [25] is Salmonella enterica subsp. enterica serovar Typhimurium ATCC 14028s.
Test [26] deals with Salmonella typhimurium C587.
The subject of test [27] is Staphylococcus aureus ATCC 25923.

≈ marks a conversion by molar mass, not a printed value. Where “and” joins values, the source holds several entries; their conditions need not be identical. Equal values may be shown once.

By MIC is commonly meant the least concentration at which growth counts as inhibited. As to `CC[C@H](C)[C@H](NC(=O)[C@H](CCCCN)NC(=O)[C@H](CCC(N)=O)NC(=O)[C@H](CCCCN)NC(=O)[C@@H](NC(=O)[C@@H](NC(=O)[C@H](CCC(N)=O)NC(=O)[C@@H](NC(=O)[C@@H](NC(=O)[C@@H]1CCCN1C(=O)[C@H](CCCN=C(N)N)NC(=O)[C@@H](NC(=O)[C@@H](NC(=O)[C@@H](N)CCCN=C(N)N)[C@@H](C)CC)[C@@H](C)CC)[C@@H](C)CC)[C@@H](C)CC)[C@@H](C)CC)[C@@H](C)CC)C(=O)N[C@@H](CCCN=C(N)N)C(=O)O` [RIIRPIIQIIKQKIR], the MIC in test [1] was 1.06 µM (≈ 2 µg/mL); in test [2] it was 1.06 µM (≈ 2 µg/mL); in test [3] it was 1.06 µM (≈ 2 µg/mL); in test [4] it was 1.06 µM (≈ 2 µg/mL); in [5], 1.06 µM (≈ 2 µg/mL); in test [6] it was 2.12 µM (≈ 4 µg/mL). In addition, the figures for the MIC in test [7] and in [8] were 2.12 µM (≈ 4 µg/mL) and 1.5 µM (≈ 2.83 µg/mL), respectively.
In the case of `CC[C@H](C)[C@H](NC(=O)[C@H](CCCN=C(N)N)NC(=O)[C@@H](NC(=O)[C@H](C)NC(=O)[C@@H](NC(=O)[C@@H](NC(=O)[C@H](CC(C)C)NC(=O)[C@H](CCCN=C(N)N)NC(=O)[C@@H](N)C(C)C)[C@@H](C)CC)C(C)C)C(C)C)C(=O)N[C@@H](Cc1c[nH]c2ccccc12)C(=O)N[C@@H](CCCN=C(N)N)C(=O)N[C@@H](CCCN=C(N)N)C(N)=O` [VRLIVAVRIWRR], the MIC is ≥ 83.3 µM in test [9]; ≥ 83.3 µM in test [10]; ≥ 167 µM in [11]; ≥ 41.6 µM in [12]; ≥ 41.6 µM in test [13]; ≥ 41.6 µM in test [14]. Also, the MIC is ≥ 167 µM in [15]; 20.8 µM (≈ 32 µg/mL) in test [16]; 20.8 µM (≈ 32 µg/mL) in [17]; ≥ 41.6 µM in test [18]; 5.21 µM (≈ 7.99 µg/mL) in [19]; 20.8 µM (≈ 32 µg/mL) in test [20]. Also, the MIC in [21] was 10.4 µM (≈ 16 µg/mL); in test [22], ≥ 41.6 µM and 20.8 µM; in test [23], 41.6 µM (≈ 64 µg/mL); in test [24] it was 12.4 µM (≈ 19 µg/mL); in test [25], ≥ 41.6 µM; in test [26], ≥ 41.6 µM. The same compound had an MIC in test [27] of 167 µM (≈ 256 µg/mL).
